Laboratory results reported in ChEMBL document CHEMBL5724796, “Tm Shift (DSF) assay results for EUbOPEN Chemogenomics Library” (2024).
Residues, ends and D or L forms follow the SMILES beside them. *: point of attachment. Boc = CC(C)(C)OC(=O)*

How the values were obtained:
Peregrin (Homo sapiens) = target: T1, Peregrin (Homo sapiens) (UniProt P55201); conditions: Compound concentration 20.0 uM
T1 sequence (whole entry): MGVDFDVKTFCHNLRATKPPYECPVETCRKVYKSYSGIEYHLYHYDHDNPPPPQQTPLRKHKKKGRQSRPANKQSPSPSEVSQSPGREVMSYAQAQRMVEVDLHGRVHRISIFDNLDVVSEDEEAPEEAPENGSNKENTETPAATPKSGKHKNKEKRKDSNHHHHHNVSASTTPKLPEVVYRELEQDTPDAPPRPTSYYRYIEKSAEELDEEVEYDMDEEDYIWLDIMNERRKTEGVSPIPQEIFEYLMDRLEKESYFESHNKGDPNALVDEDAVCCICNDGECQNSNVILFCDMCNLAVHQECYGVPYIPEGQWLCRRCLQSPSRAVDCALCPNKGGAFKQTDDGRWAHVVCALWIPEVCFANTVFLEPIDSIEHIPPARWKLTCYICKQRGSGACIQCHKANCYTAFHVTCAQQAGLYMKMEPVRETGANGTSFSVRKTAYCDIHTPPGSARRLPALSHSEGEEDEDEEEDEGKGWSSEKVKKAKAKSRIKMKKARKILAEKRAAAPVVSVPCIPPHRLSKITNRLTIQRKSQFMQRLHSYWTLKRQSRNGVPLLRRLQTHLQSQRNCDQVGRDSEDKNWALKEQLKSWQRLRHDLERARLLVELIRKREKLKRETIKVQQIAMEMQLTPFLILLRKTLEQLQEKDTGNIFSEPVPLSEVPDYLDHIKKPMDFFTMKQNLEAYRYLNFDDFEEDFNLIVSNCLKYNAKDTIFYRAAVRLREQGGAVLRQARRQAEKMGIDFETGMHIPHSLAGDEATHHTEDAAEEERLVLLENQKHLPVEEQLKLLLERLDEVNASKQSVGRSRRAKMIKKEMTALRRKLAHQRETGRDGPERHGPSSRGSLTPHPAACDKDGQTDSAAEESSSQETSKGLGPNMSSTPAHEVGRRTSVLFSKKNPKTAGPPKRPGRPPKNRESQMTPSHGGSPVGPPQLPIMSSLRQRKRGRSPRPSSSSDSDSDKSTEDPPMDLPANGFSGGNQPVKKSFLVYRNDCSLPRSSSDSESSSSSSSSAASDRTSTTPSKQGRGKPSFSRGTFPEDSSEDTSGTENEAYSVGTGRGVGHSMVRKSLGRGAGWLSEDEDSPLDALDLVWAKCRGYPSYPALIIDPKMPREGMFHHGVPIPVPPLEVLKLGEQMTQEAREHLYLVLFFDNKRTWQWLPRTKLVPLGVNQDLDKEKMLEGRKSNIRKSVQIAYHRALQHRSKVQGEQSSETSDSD

[1] = target: Fibroblast growth factor receptor 2 (Homo sapiens) (UniProt P21802); conditions: Compound concentration 20.0 uM
Chain of Fibroblast growth factor receptor 2 (Homo sapiens) (P21802 22-821 limits assumed): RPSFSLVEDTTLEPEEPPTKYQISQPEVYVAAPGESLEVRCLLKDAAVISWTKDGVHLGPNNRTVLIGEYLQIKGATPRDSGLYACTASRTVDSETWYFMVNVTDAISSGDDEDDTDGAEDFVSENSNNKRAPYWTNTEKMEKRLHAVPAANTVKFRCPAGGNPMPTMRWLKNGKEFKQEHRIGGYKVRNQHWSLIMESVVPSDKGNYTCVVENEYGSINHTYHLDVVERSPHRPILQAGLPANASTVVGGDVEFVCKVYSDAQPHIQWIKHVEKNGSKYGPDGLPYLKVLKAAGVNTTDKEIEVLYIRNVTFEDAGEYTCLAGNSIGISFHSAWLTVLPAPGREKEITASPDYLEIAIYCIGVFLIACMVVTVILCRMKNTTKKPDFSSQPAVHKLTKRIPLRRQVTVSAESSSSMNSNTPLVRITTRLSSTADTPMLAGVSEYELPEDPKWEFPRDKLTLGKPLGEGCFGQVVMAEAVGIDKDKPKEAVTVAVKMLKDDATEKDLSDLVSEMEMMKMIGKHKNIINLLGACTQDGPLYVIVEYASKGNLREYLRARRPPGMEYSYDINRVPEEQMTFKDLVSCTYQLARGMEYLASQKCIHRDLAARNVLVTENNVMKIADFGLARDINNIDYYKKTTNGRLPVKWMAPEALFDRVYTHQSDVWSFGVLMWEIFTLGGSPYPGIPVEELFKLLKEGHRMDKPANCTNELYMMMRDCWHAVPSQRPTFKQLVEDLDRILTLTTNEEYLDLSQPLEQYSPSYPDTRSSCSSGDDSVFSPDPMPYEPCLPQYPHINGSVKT
Description: Thermal Shift Assay. Domain: start/stop: T457-E768

| SMILES | ΔTm (Peregrin (Homo sapiens)) [°C] | ΔTm [1] [°C] | ΔTm (Peregrin (Homo sapiens); Protein concentration 2.0 uM) [°C] |
| --- | --- | --- | --- |
| COc1cc2c(cc1OC)[C@H]1C[C@@H](OC(=O)[C@@H](N)C(C)C)[C@H](CC(C)C)CN1CC2 | -1.11 | 0.33 | – |
| N[C@@H](CCCCNC(=O)OCc1ccc([N+](=O)[O-])cc1)C(=O)N1CCCC1 | 0.82 | -0.09 | – |
| Nc1ccccc1NC(=O)CCCCCC(=O)Nc1ccccc1 | -1.41 | 0.58 | – |
| O=C(NO)c1cnc(NC2(c3ccccc3)CC2)nc1 | -1.33 | 0.35 | – |
| CC(C)(C)OC(=O)N1CCC[C@H]1C(=O)N1CCC[C@H]1C=O (Boc-Pro-Pro-aldehyde) | -0.14 | 0.01 | – |
| CCC(CC)(NC(=O)C(C)C)C(=O)N[C@@H](CCCNC(=N)N)C(=O)NC1(C(=O)NC(c2ccc(F)cc2)c2ccc(F)cc2)CCCC1 | -0.95 | -3.44 | – |
| COc1ccc(CNc2nc(N3CCC[C@H]3CO)ncc2C(=O)NCc2ncccn2)cc1Cl | 0.12 | -0.2 | – |
| O=C(O)CCNC(=S)NCCCC[C@H](NS(=O)(=O)c1cccc(F)c1)C(=O)N[C@@H](Cc1c[nH]c2ccccc12)C(=O)NC1CCC1 | 1.86 | -0.15 | – |
| O=C1COc2c(cccc2[C@@H](O)CNCCN(C(=O)CCNCCc2ccc(Cl)c(Cl)c2)C2CCCCC2)N1 | -1.84 | 0.36 | – |
| N=C(N)N/N=C/c1cccc(Cl)c1Cl | -0.71 | 0.87 | – |
| Cc1noc(C)c1-c1cc(Cl)c(Nc2ccccc2C(=O)O)c(Cl)c1 | -0.15 | 0.17 | – |
| Cc1ncsc1-c1ccc(CNC(=O)[C@@H]2C[C@@H](O)CN2C(=O)[C@@H](NC(=O)COCCOCCOc2ccc(-c3ccc4ncnc(Nc5ccc(OCc6cccc(F)c6)c(Cl)c5)c4c3)cc2)C(C)(C)C)cc1 | 0 | -3.99 | – |
| COC(=O)[C@@H]1CC2=CC(=O)CC[C@]2(C)[C@@]23O[C@@H]2C[C@@]2(C)[C@@H](CC[C@@]24CCC(=O)O4)[C@H]13 | -1.07 | 1.06 | – |
| CCN(C(=O)c1cc(F)ccc1Oc1cncnc1N1CC2(CCN(C[C@H]3CC[C@H](NS(=O)(=O)CC)CC3)CC2)C1)C(C)C | 0.45 | 0.21 | – |
| CCS(=O)(=O)N1CCC([C@@H](C)n2c(C)c(C(=O)NCc3c(OC)cc(C)[nH]c3=O)c3ccccc32)CC1 | -1.1 | 0.02 | – |
| CC1(C)CC[C@]2(C(=O)O)CC[C@]3(C)C(=CC[C@@H]4[C@@]5(C)C=C(O)C(=O)C(C)(C)[C@@H]5CC[C@]43C)[C@@H]2C1 | 2.32 | 0 | – |
| CCCC(NC(=O)C(CC(C)C)NC(=O)OCc1ccccc1)C(=O)C(=O)NCc1ccccn1 (racemic) | -1.7 | 0.15 | – |
| N#C[C@@H]1CCCN1C(=O)CNC(=O)c1ccnc2ccc(OCCCN3CCN(C(=O)CN4CCN(CC(=O)O)CCN(CC(=O)O)CCN(CC(=O)O)CC4)CC3)cc12 | 1.8 | 0.18 | – |
| CC(C)(C)OC(=O)Nc1ccc(CNc2nccc(Nc3cc(C(=O)OC(C)(C)C)[nH]n3)n2)cc1 | -1.32 | 1.22 | – |
| CCNC(=O)c1cc2c(-c3cc(C(C)(C)O)ccc3Oc3c(C)cc(F)cc3C)cn(C)c(=O)c2[nH]1 | 1.94 | 0.28 | – |

| SMILES | ΔTm (Peregrin (Homo sapiens)) [°C] | ΔTm [1] [°C] | ΔTm (Peregrin (Homo sapiens); Protein concentration 2.0 uM) [°C] |
| --- | --- | --- | --- |
| CN(CC[C@@H](Oc1ccc(-c2ccccc2)cc1)c1ccc(F)cc1)CC(=O)O | -0.36 | 0.18 | – |
| CN(C)CCCNC(=O)c1ccc(-c2cc(O)c3ncccc3c2)cc1 | -1.48 | 0.49 | – |
| Cc1ncccc1-c1cnc(NCc2c(F)ccc3c2CCO3)n2cnnc12 | -0.54 | -0.09 | – |
| CCCC[C@]1(CC)CS(=O)(=O)c2cc(CNC(CC(=O)O)CC(=O)O)c(OC)cc2[C@@H](c2ccccc2)N1 | 1.87 | 0.6 | – |
| CNC(=O)c1cc(Nc2ccnc(Nc3ccc(CCNC(=O)OC(C)(C)C)cc3)n2)n[nH]1 | -1.87 | 0.64 | – |
| CCN(CC)c1ccc(C2=NNC(=O)C[C@H]2C)cc1[N+](=O)[O-] | 1.09 | 0.2 | – |
| Cc1cnc(-c2ccccc2C(C)C)nc1NCc1ccc(-n2ccnn2)cc1 | -1.14 | -0.47 | – |
| CCC(=O)N[C@H]1CC[C@@H](C(=O)N(C)c2ccc(-c3nc4ccccc4o3)cc2)C1 | 0.27 | 0.23 | – |
| CCCOc1ccc(NC(=O)CN2CCN(C)CC2)cc1-c1nc(CC)c(CC)c(=O)[nH]1 | 1.24 | -0.52 | – |
| CN(Cc1ccccc1)c1ccc2cc(C(=O)O)c(=O)oc2c1 | 0.71 | 0.34 | – |
| Cc1cc(OCCCNCC(C)(C)C(N)=O)ccc1Cc1c(O[C@@H]2O[C@H](CO)[C@@H](O)[C@H](O)[C@H]2O)n[nH]c1C(C)C | 1.07 | -0.15 | – |
| CCN(CC)C(=O)/C(C#N)=C/c1cc(O)c(O)c([N+](=O)[O-])c1 | 1.31 | 0.06 | – |
| C[C@H](c1nc2c(cnn2C2CCOCC2)c(=O)[nH]1)N1CC(Oc2ccccc2)C1 | 2.25 | -0.05 | – |
| CS(=O)(=O)c1ncn2c(NCc3c(F)ccc4c3CCO4)ncc(-c3ccc(C4CC4)nc3)c12 | -0.81 | -0.76 | – |
| Cn1ncnc1[C@H]1C2=c3c(cc(F)cc3=N[C@@H]1c1ccc(F)cc1)C(=O)NN2 | 3.07 | 0.09 | – |
| COc1cc2c(NC3CCN(CC4CCCCC4)CC3)nc(N3CCCN(C(C)C)CC3)nc2cc1OCCCN1CCCCC1 | -0.98 | 0.65 | – |
| Nc1ncnc2c1nc(NCc1ccc(-c3ccccc3)cc1)n2[C@@H]1O[C@H](CO)[C@@H](O)[C@H]1O | 0.29 | 0.12 | – |
| COc1ccc(N(C(=O)Oc2c(C)cccc2C)c2ccnc(Nc3ccc(N4CCN(C)CC4)cc3)n2)c(OC)c1 | -1.1 | 4.44 | – |
| Cc1ccc(NC2=CC(=O)c3sc(C)nc3C2=O)cc1 | -1.72 | -0.13 | – |
| Cc1cc(Cl)cc(-c2c3sc(CN4C(=O)C5C(C4=O)C5(C)C)cc3nn2C)c1OC1CCNCC1 (stereo not drawn) | 0.52 | -0.72 | – |

| SMILES | ΔTm (Peregrin (Homo sapiens)) [°C] | ΔTm [1] [°C] | ΔTm (Peregrin (Homo sapiens); Protein concentration 2.0 uM) [°C] |
| --- | --- | --- | --- |
| CC(c1cccc2ccccc12)n1cnc2c(=O)[nH]c(Cc3ccccc3)nc21 (stereo not drawn) | -0.65 | -1.64 | – |
| CC(C)(C)OC(=O)NCCCCCN(CCc1ccccc1)C(=O)n1cc(-c2ccc(OC(F)(F)F)cc2)nn1 | 1.14 | -1.05 | – |
| CCOc1ccc(Cc2cc([C@]34OC[C@](CO)(O3)[C@@H](O)[C@H](O)[C@H]4O)ccc2Cl)cc1 | 0.95 | 0.47 | – |
| COCc1nc2cnc3cc(-c4c(C)noc4C)c(OC[C@H]4CCNC4)cc3c2n1[C@H](C)c1ccccc1 | 0.65 | 0.01 | – |
| CC(C)C(=O)c1c(C(C)C)nn2ccccc12 | 0.32 | -0.49 | – |
| CNC(=O)O[C@H]1COc2ccc(N3CCN(C4COC4)CC3)cc2[C@@H]1NC(=O)c1ccc(F)cc1 | -1.56 | 0.9 | – |
| O=C(CCCCCCC(=O)Nc1ccc([C@H]2O[C@@H](CSc3nc(-c4ccccc4)c(-c4ccccc4)o3)C[C@@H](c3ccc(CO)cc3)O2)cc1)NO | 0 | -10.7 | – |
| O=C(NCc1ncccc1F)c1coc(CCNCCc2nc3ccccc3[nH]2)n1 | -1.77 | -0.6 | – |
| COc1cc2c(cc1-c1c(C)noc1C)[nH]c1nc(C)nc(-c3ccnc4ccccc34)c12 | 1.04 | -1.02 | – |
| Cc1sc(C(=O)c2cncnc2N[C@@H]2C[C@H](COS(N)(=O)=O)[C@@H](O)C2)cc1[C@@H]1NCCc2ccc(Cl)cc21 | -1.17 | 0.33 | – |
| N=C(N)SCc1ccc(CN2C(=O)C(=O)c3cc(C(F)(F)F)ccc32)cc1 | 0.27 | 0.77 | – |
| CS(=O)(=O)c1ccc(-c2nnc(C=Cc3nnc(-c4ccc(C#N)cc4)o3)n2-c2ccccc2Cl)nc1 | – | 0.13 | 2 |
| O=C(c1cc(Cl)c(O)c(Cl)c1)N1CS(=O)(=O)c2ccccc21 | 1.35 | 0.39 | – |
| Cc1cc(C(=O)CN2CCCCC2)c(C)n1-c1ccc(Cl)cc1 | -1.17 | -0.09 | – |
| Cc1ccc2[nH]c3c(c2c1)CCCC3C(N)=O (stereo not drawn) | 0.79 | 0.03 | – |
| O=C(c1ccc2c(ccn2-c2ccc(F)cc2)c1)N1CC(N2CCN(C(=O)c3nccs3)CC2)C1 | -2.53 | -0.43 | – |
| CN1CCN(c2nc(-c3ccc(C(=O)NC4(C(=O)NCC#N)CCCCC4)cc3)cs2)CC1 | -1.32 | 0.15 | – |
| CCOc1ccc(Cc2cc([C@@H]3O[C@H](CO)[C@@H](O)[C@H](O)[C@H]3O)ccc2Cl)cc1 | -0.19 | 0.15 | – |
| Cc1cc(C)c(-c2[nH]nc(C)c2C)cc1C(=O)N1CC(c2ccc(C#N)cc2)C1 | -1.03 | -0.22 | – |
